Reference: article PMC5597475 (Molecular imaging and biology : MIB : the official …, 2017)

Key:
[1] = target: LRRK2 (Homo sapiens, UniProt Q5S007); assay type: binding
[2] = system: WT (wild-type) LRRK2; details: cited from earlier work
[3] = system: mutant G2019S type LRRK2; details: cited from earlier work
[4] = target: LRRK2 (Rattus norvegicus, UniProt F1LNJ1); details: IC50 for displacement of [^3H]LRRK2-IN-1 binding, rat kidney; 10 nM radioligand
[5] = target: LRRK2 (Mus musculus, UniProt Q5S006); test: In vivo blocking study: [^3H]LRRK2-IN-1 co-administered with Pf-06447475 in mice; details: for % blocking (max.) of [^3H]LRRK2-IN-1 uptake: 10 mg/kg Pf-06447475, 10 mg/kg
Chain of LRRK2 (Mus musculus, UniProt Q5S006) (Q5S006 whole entry): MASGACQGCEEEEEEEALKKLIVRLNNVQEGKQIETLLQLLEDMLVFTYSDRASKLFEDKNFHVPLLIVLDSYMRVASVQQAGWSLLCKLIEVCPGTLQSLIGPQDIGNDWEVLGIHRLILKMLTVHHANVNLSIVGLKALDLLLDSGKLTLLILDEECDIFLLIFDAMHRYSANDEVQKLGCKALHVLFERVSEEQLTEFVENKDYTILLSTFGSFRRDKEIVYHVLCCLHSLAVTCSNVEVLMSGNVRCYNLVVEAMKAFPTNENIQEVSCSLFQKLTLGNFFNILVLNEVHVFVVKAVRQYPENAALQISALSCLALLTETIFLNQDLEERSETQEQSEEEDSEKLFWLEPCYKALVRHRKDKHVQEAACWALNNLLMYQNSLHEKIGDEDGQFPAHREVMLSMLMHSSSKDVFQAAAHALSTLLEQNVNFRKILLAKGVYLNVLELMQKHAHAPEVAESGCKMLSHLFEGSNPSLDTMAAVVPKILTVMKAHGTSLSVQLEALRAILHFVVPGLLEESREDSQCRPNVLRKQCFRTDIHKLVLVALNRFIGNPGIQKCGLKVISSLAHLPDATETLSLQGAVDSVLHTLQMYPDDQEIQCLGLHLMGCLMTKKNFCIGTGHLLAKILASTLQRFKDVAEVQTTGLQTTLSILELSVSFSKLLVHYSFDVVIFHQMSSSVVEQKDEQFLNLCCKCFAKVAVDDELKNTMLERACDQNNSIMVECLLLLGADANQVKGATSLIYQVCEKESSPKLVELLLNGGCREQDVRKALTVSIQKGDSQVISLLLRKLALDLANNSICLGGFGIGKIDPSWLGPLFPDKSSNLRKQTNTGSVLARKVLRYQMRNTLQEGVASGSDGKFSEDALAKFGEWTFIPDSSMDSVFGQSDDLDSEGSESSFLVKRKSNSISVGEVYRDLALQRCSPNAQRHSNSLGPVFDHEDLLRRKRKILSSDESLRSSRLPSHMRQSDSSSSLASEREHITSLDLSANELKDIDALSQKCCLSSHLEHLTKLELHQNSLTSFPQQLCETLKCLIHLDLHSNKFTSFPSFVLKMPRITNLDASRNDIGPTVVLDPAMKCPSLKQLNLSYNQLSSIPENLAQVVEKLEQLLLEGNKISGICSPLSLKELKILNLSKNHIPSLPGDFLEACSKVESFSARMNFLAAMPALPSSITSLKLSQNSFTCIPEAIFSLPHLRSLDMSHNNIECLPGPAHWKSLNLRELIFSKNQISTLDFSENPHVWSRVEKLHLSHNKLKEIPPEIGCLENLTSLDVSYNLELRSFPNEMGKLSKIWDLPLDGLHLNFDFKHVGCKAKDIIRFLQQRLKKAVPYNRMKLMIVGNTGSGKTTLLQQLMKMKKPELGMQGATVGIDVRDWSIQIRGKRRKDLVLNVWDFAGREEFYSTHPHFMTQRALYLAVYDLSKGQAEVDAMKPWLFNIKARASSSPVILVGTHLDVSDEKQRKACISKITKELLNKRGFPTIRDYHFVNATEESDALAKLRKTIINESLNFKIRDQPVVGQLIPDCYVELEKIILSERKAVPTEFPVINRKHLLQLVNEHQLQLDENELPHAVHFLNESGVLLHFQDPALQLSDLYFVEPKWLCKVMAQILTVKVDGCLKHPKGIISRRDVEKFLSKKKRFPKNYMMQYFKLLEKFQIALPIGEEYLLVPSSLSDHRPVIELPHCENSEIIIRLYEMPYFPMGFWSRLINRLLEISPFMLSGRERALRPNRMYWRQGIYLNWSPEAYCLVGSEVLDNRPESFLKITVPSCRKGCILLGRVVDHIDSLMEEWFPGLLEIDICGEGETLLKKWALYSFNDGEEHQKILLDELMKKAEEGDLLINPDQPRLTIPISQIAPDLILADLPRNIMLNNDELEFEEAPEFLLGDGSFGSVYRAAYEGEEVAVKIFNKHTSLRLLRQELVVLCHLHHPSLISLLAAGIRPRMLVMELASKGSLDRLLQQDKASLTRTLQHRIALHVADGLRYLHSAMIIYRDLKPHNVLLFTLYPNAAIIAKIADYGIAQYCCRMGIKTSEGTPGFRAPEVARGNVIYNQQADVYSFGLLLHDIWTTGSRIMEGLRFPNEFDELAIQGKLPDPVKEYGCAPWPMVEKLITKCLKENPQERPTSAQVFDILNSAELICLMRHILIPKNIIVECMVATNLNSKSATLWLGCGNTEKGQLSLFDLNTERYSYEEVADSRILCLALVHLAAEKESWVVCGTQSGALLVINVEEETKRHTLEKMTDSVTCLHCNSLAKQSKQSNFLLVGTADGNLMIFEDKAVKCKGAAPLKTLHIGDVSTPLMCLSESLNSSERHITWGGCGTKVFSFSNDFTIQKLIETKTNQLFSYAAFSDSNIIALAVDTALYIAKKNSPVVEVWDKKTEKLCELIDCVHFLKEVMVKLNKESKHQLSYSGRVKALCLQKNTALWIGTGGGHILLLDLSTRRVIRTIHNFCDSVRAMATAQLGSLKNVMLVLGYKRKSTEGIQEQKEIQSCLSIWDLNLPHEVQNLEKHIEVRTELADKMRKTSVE

[6] = target: LRRK2 kinase; details: LRRK2 kinase inhibitor; cited from earlier work

Chain of LRRK2 (Rattus norvegicus, UniProt F1LNJ1) (F1LNJ1 1-2526): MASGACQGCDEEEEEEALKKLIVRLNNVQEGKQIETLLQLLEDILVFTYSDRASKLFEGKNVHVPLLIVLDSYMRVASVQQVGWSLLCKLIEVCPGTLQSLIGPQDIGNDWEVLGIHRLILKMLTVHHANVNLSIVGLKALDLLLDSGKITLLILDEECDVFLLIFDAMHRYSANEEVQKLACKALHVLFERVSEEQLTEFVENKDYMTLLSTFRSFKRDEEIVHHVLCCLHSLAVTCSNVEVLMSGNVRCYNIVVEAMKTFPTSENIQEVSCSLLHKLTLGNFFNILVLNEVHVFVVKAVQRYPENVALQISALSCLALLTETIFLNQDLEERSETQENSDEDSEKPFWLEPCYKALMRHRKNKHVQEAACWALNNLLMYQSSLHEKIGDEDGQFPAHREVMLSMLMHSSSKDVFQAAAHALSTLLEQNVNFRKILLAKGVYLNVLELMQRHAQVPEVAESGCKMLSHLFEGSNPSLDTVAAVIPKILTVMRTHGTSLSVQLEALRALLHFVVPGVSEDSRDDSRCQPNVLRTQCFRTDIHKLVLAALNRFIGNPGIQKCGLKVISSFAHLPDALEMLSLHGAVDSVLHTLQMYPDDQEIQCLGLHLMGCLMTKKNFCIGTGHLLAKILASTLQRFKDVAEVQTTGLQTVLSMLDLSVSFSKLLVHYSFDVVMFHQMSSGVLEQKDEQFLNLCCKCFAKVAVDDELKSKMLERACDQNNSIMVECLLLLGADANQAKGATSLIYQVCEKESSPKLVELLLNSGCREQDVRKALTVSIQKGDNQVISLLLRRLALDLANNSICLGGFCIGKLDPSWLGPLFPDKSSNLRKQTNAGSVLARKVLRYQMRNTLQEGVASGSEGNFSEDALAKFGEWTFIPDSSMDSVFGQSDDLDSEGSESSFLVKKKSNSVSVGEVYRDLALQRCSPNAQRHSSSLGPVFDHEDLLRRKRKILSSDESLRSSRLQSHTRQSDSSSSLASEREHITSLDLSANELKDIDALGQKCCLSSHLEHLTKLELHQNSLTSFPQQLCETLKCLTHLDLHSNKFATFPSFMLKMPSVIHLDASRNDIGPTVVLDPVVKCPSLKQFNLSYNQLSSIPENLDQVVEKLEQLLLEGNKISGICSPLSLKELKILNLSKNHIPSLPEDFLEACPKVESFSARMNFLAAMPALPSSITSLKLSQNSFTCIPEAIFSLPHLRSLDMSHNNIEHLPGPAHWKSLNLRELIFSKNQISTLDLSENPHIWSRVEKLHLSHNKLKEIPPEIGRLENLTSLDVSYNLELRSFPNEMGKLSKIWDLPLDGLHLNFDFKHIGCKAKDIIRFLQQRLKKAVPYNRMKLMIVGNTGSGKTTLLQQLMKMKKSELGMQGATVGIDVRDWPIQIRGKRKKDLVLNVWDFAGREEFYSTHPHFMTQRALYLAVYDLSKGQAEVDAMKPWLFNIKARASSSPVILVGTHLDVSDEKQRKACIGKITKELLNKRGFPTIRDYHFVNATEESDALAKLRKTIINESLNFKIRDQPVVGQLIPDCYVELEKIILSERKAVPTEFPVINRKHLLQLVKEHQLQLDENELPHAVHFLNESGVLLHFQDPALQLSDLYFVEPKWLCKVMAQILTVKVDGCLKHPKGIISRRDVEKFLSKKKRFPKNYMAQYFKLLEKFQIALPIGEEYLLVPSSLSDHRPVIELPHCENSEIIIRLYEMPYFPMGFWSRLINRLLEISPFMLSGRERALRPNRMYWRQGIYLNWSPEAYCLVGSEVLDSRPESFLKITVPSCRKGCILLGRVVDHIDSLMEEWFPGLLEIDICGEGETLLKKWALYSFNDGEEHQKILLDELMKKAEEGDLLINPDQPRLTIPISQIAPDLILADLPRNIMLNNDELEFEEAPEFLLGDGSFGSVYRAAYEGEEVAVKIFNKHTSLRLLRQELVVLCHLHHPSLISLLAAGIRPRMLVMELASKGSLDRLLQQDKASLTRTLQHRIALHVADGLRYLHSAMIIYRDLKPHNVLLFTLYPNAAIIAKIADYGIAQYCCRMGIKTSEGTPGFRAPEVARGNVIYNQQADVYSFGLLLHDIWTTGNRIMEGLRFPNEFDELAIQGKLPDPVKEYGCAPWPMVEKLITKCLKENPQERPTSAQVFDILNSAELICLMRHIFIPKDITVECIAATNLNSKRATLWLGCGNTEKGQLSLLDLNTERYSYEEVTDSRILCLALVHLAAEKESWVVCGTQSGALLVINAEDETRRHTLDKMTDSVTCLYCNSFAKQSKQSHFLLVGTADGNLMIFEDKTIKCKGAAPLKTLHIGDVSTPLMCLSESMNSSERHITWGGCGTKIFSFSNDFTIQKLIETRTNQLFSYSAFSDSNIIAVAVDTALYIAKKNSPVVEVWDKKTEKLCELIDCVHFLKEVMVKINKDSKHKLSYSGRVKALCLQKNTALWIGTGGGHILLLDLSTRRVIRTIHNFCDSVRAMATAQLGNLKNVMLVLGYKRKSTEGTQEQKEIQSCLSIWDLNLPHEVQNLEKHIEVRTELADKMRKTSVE

% blocking (max.) of [^3H]LRRK2-IN-1 uptake ([5]; brain) [%] | Reduction of [^3H]LRRK2-IN-1 uptake ([5]; heart, 10 mg/kg Pf-06447475) [%] | Reduction of [^3H]LRRK2-IN-1 uptake (%ID/g) ([5]; in the kidney or brain, 10 mg/kg Pf-06447475) | % blocking (max.) of [^3H]LRRK2-IN-1 uptake ([5]; kidney) [%] | Reduction of [^3H]LRRK2-IN-1 uptake ([5]; liver, 10 mg/kg Pf-06447475) [%] | Reduction of [^3H]LRRK2-IN-1 uptake ([5]; lung, 10 mg/kg Pf-06447475) [%] | Reduction of [^3H]LRRK2-IN-1 uptake ([5]; muscle, 10 mg/kg Pf-06447475) [%] | Reduction of [^3H]LRRK2-IN-1 uptake ([5]; spleen, 10 mg/kg Pf-06447475) [%] | Structure (SMILES) | IC50 [1] [nM] | IC50 [2] [nM] | IC50 [3] [nM] | IC50 [4] [nM] | IC50 [6] [nM]
– | – | – | – | – | – | – | – | COc1cc(C(=O)N2CCC(N3CCN(C)CC3)CC2)ccc1Nc1ncc2c(n1)N(C)c1ccccc1C(=O)N2C [LRRK2-IN-1] | 73 ± 6 | 13 | 6 | 40 ± 4 | –
62 | 72 | 50–60% | 54 | 34 | 78 | 62 | 40 | N#Cc1cccc(-c2c[nH]c3ncnc(N4CCOCC4)c23)c1 [Pf-06447475, 3-[4-(morpholin-4-yl)-7H-pyrrolo[2,3-d]pyrimidin-5-yl] benzonitrile] | – | – | – | – | 3
